Data set [1] deals with portal vein. The data set is described as follows: Ca-antagonistic effect on isolated portal vein (spontaneous myogenic activity). The arrangement: species or system rat. The settings on record: 10 mM K^+-solution added, cumulative doses. An excerpt:
(§1) b) Antagonistic effect to noradrenaline and calcium on the portal vein
(§2) Preparation of isolated portal vein from rat
(§3) Animals : Albino, male rats, weighing about 200 g.
(§4) The rat is killed by a blow on the neck and decapitated. The abdomen is opened, the vein is dissected free from fat, cut open longitudinally and mounted in an organ bath. Changes in isometric tension is registered by a force displacement transducer, connected to an amplifier and a writing oscillograph.
Ca - antagonistic effect on portal vein
10 mM K^+-solution is added to the Krebs buffer to stabilize the spontaneous myogenic activity of the vein. The amplitude of the muscle contractions is measued. The test substance is added to the bath in cumulative doses until total inhibition is obtained.

A short description of data set [2]: Acute toxicity in mice, i.v. bolus. The format is in vivo. To be noted: mouse, in vivo, iv; LD50-interval: between highest dose where 4 mice survived and lowest dose where 4 mice died within 5 minutes after i.v. bolus. As for the experimental part:
(§5) d) Acute toxicity in mice
(§6) The antagonists to be tested were dissolved in 0.9% NaCI. If they were not soluble in 0.9% NaCI they were dissolved in double distilled water. The solutions were prepared on the day of the experiment.
(§7) White male mice, 25 g, were placed in a mouse holder. The tested compounds were given as i.v. bolus doses in one of the four tail-veins, with a volume of 0.01 ml/g mouse. Each substance concentration was given to a group of four mice. 4-5 different concentrations of the antagonists were made and tested.
(§8) LDso-interval : The LD50-interval was between the highest dose where 4 mice survived and the lowest dose where 4 mice died within 5 minutes after an i.v. bolus dose.

In data set [3] the test system is mice. The data set is described as follows: Acute toxicity in mice, i.v. bolus. The format is in vivo. To be noted: lowest dose where 4 mice of 4 tested died within 5 minutes after i.v. bolus. As to the method:
as §5, §6, §7, §8

The subject of data set [4] is conscious rat. The data set is described as follows: Effect on heart rate in conscious rat (ECG). In kind it is in vivo. The settings on record: i.v. injection. An excerpt: e) Effect on heart rate in conscious rat
The animal is slightly anaestetized by ether and an infusion cannula is inserted into a tail vein. While still asleep the rat is placed in a simple device, made of a coarse, somewhat elastic net fixing the rat in a constant position. Electrodes are attached to the extremities and connected to an ECG-pulse pre-amplifier and a Grass polygraph. By recording the ECG, the heart rate can then be determined.
Before any substance is given the animal has regained consciousness and the heart rate has been constant for at least 15 minutes.
The substance is injected, i.v. in the infusion cannula and flushed with physiological saline.
ECG is recorded 0.25, 0.5, 1, 2, 3 and 5 minutes after completed injection and then every 5 minutes until the original heart rate is obtained.

Data set [5] concerns isolated urinary bladder. As to the kind of experiment: Anticholinergic activity on isolated urinary bladder (inhibition of carbachol-induced contraction of bladder strips). Also on record: species or system guinea-pigs. The settings on record: 60 minutes incubation with antagonist. An excerpt:
a) Anticholinergic activity on isolated urinary bladder
Male guinea-pigs, weighing 250-350 g, were killed by a blow on the head and exsanguinated. The urinary bladders were quickly removed and placed in Na^+-Krebs, in which they were kept throughout the dissection procedure. The bladders were dissected free from adherent fat and connective tissue before they were cut open by an incision on each side from the base towards apex. The mucosa was carefully removed with a pair of scissors. Four strips, approximately 3-5 mm long were prepared by cutting in a parallel direction to the longitudinal muscle fibres, on each half of the bladder.
The bladder strips were immediately mounted vertically in 5 ml organ baths containing Na^+-Krebs solution aerated with carbogene gas to maintain the pH at about 7.4. The temperature, 37°C, was thermostatically controlled by a Lauda MS3 thermostatic circulator. The preparations were suspended between two hooks, one of which was connected to a Grass Instruments FT03 force transducer. The isomeric tension of the preparations was recorded by a Grass polygraph model 79D. The resting tension was applied to approximately 5 mN. The strips were allowed to stabilize for at least 45 minutes. During this period the resting tension was adjusted to 5 mN and the preparations were repeatedly washed.
In the preliminary experiments concentration - effect curves for carbachol (carbamylcholin chloride) were studied, in order to determine a suitable agonist concentration for inhibition studies with antagonist. The carbachol concentration chosen, 3 x 10^-6M, produced a submaximal contractant response (70%). In the inhibition studies, the strips were contracted with carbachol (3 x 10^-6M) every 15 minutes. The strips were washed three times after every agonist addition. This procedure was repeated until a reproducible contractant response was observed. A variation of about 10% for three subsequent contractions was accepted as reproducible.
Initially each antagonist was tested in a concentration of 10-t1M, on. two bladder-strips from different guinea-pigs. When a reproducible response with 3 × 10^-6M carbachol was obtained, the strips were incubated with the antagonist for 15 minutes before the next carbachol was added. If the antagonist produced more than 50% inhibition of the response to carbachol, a complete concentration-inhibition curve was also made. In the complete inhibition curves, the strips were then incubated for 60 minutes with a fixed concentration of the antagonist before the next addition of carbachol. The effect of the antagonists was calculated as per cent inhibition of the mean of the initial agonist-induced contractions. To generate concentration-inhibition curves the antagonists were studied in 6-8 concentrations and for each concentration a fresh preparation was used, i.e. the strips were only exposed to the antagonist once before they were discarded.

The test system of data set [6] is portal vein. The data set is described as follows: Noradrenaline antagonism on isolated portal vein. To be noted: 10 min. The arrangement: species or system rat.
From the text: as §1, §2, §3, §4
Noradrenaline - antagonism on portal vein
Doses: Noradrenaline 3 x 10-^7 M
The chosen doses give about 70% of maximal response. The agonist is added to the bath at 10-minutes intervals. When reproducible contractions are obtained a fixed concentration of the test substance is added to the bath. After an incubation period of 10 minutes noradrenaline is added. The next concentration of the test substance is added when the original response of the agonist is obtained.
The antagonistic effect of the substance is calculated as per cent inhibition of the mean response by three preceding doses of the agonist.

Where [7] appears, read: rat portal vein, read-out: Anti-Ca effect IC50.
Setting [8] is: Cavia porcellus, 1 h, guinea-pig bladder strips contracted with carbachol 3 x 10^-6M, read-out: Antichol. effect IC50.
Where [9] appears, read: rat portal vein, noradrenaline 3 x 10-^7 M, 10 minutes incubation, read-out: Anti-N.A. effect IC50.
[10] abbreviates: read-out: Antichol. effect IC50, guinea-pig bladder strips contracted with carbachol 3 x 10^-6M.
Setting [11] is: Rattus norvegicus, read-out: Anti-Ca effect IC50 (M), rat portal vein.
Setting [12] is: Cavia porcellus, 1 h, read-out: Antichol. effect IC50 (M), guinea-pig bladder strips contracted with carbachol 3 x 10^-6M.
Setting [13] is: Rattus norvegicus, read-out: Anti-N.A. effect IC50 (M).

Where two headings read alike, the source gives them in different places.

The term IC50 denotes the concentration that inhibits the measured activity by half. One may read the LD50 as the dose expected to kill half of the subjects tested. Read a high LD50 as lower toxicity.

As to `CC(C)N(CCC(c1ccccc1)c1ccccc1O)C(C)C` (racemic) [Compound 1, N,N-Diisopropyl-3-(2-hydroxyphenyl)-3-phenylpropylamine], the IC50 amounted to 1.5e-05 M in data set [1] (setting [7]), 1.8e-08 M in data set [5] (setting [8]) and 1e-05 M in data set [6] (setting [9]). This compound also returned an LD50 at 5 min in data set [2] of 10 to 20 mg/kg. Besides, in data set [3], the Lethal dose is 20 mg/kg. The “Effect on heart rate threshold dose” value in data set [4] is 1 to 3 mg/kg.
With `Cc1ccc(O)c(C(CCN(C(C)C)C(C)C)c2ccccc2)c1` (single isomer, unassigned) [Compound 4b, (-)-N,N-Diisopropyl-3-(2-hydroxy-5-methylphenyl)-3-phenylpropylamine hydrogen D(-)-tartrate], the IC50 in data set [1] (read-out: Anti-Ca effect IC50, rat portal vein) worked out at 6e-06 M; in data set [5] (setting [10]) it was 1.3e-06 M.
Regarding `CC(C)N(CCC(c1ccccc1)c1ccccc1O)C(C)C` (single isomer, unassigned; (+)) [Compound 1a, (+)-N,N-Diisopropyl-3-(2-hydroxyphenyl)-3-phenylpropylamine], the IC50 in data set [5] (setting [8]) turned out to be 1.8e-08 M.
Consider `Cc1ccc(O)c(C(CCN(C(C)C)C(C)C)c2ccccc2)c1.O=C(O)C(O)C(O)C(=O)O` (single isomer, unassigned; (+)) [Compound 4a, (+)-N,N-Diisopropyl-3-(2-hydroxy-5-methylphenyl)-3-phenylpropylamine hydrogen tartrate], for which the IC50 in data set [1] (read-out: Anti-Ca effect IC50, rat portal vein, tartrate) was found to be 6.5e-06 M; in data set [5] (read-out: Antichol. effect IC50, guinea-pig bladder strips contracted with carbachol 3 x 10^-6M, tartrate), 1.3e-08 M. For the same compound, the LD50 at 5 min in data set [2] lay within 10 to 20 mg/kg.
For the compound `CC(C)N(CCC(c1ccccc1)c1ccccc1O)C(C)C` (single isomer, unassigned; (-)) [Compound 1b, (-)-N,N-diisopropyl-3-(2-hydroxyphenyl)-3-phenylpropylamine], the IC50 in data set [5] (guinea-pig bladder strips contracted with carbachol 3 x 10^-6M, read-out: Antichol. effect IC50) amounted to 1.4e-08 M.
In the case of `COc1ccccc1C(CCN(C)C(C)(C)C)c1ccccc1` (stereo not drawn) [Compound 2], the values for the IC50 in data set [1] (setting [7]), in data set [5] (setting [8]) and in data set [6] (setting [9]) were 9e-06 M, 1.5e-07 M and 3.5e-06 M, respectively. Moreover, the LD50 at 5 min in data set [2] fell in the range of 10 to 20 mg/kg. Further, the Lethal dose in data set [3] came out at 20 mg/kg.
`COc1ccccc1C(CCN(C(C)C)C(C)C)c1ccccc1` (stereo not drawn) [Compound 3]: the IC50 in data set [1] (setting [11]) was above 0.0001 M; in data set [5] (setting [12]) it was 2.4e-07 M; in data set [6] (setting [13]) it was 3.6e-06 M. The same compound gave an LD50 at 5 min in data set [2] of 3 to 10 mg/kg. The Lethal dose in data set [3] is listed as 10 mg/kg.
In the case of `Cc1ccc(O)c(C(CCN(C(C)C)C(C)C)c2ccccc2)c1` (stereo not drawn) [Compound 4, N,N-Diisopropyl-3-(2-hydroxy-5-methylphenyl)-3-phenylpropylamine], the IC50 is 6e-06 M in data set [1] (setting [11]), 1.5e-08 M in data set [5] (setting [10]) and 5.5e-06 M in data set [6] (setting [13]). The LD50 at 5 min in data set [2] is 30 to 40 mg/kg.
`CN(CCC(c1ccccc1O)c1ccccc1O)C(C)(C)C` [Compound 5]: the IC50 stood at 3e-05 M in data set [1] (setting [7]), 4.9e-09 M in data set [5] (setting [8]) and 3.8e-05 M in data set [6] (setting [9]). In data set [2], this compound gave an LD50 at 5 min of 30 to 45 mg/kg. The compound also gave a Lethal dose in data set [3] of 45 mg/kg. Moreover, the “Effect on heart rate threshold dose” value in data set [4] was 1 to 3 mg/kg.
For the compound `CC(C)N(CCC(c1ccccc1)c1cc(O)ccc1O)C(C)C` (stereo not drawn) [Compound 7], the IC50 in data set [1] (setting [7]) amounted to 6.5e-05 M; in data set [5] (setting [8]) it was 1.9e-08 M; in data set [6] (setting [9]) it was 5e-05 M. In addition, the LD50 at 5 min in data set [2] was 30 to 50 mg/kg. Further, the Lethal dose in data set [3] turned out to be 50 mg/kg.
Turning to `CN(CCC(c1ccccc1)c1cc(O)ccc1O)C(C)(C)C` (stereo not drawn) [Compound 8], the values for the IC50 in data set [1] (setting [7]), in data set [5] (setting [8]) and in data set [6] (setting [9]) were above 5e-05 M, 3.1e-08 M and 5e-05 M, respectively. The compound further yielded an LD50 at 5 min in data set [2] above 6 mg/kg. Besides, the Lethal dose in data set [3] is on record as above 6 mg/kg.
Regarding `CN(CCC(c1ccccc1)c1ccccc1O)C(C)(C)C` (stereo not drawn) [Compound 9], the IC50 in data set [1] (setting [7]) was determined as 2.5e-05 M; in data set [5] (setting [8]), 1.6e-08 M; in data set [6] (setting [9]), 5e-05 M. In data set [3], this compound gave a Lethal dose of 20 mg/kg.
In the case of `COc1ccccc1C(CCN1C(C)(C)CCCC1(C)C)c1ccccc1` (stereo not drawn) [Compound 10], the IC50 in data set [1] (setting [7]) was 7e-06 M; in data set [5] (setting [8]), 6.2e-08 M; in data set [6] (setting [9]) it was 4e-06 M.
For the compound `CC(C)N(CCC(c1ccccc1O)c1ccccc1O)C(C)C` [Compound 13], the IC50 turned out to be 1.5e-05 M in data set [1] (setting [11]), 9e-09 M in data set [5] (setting [12]) and 3e-05 M in data set [6] (setting [13]). The same compound gave an LD50 at 5 min in data set [2] of 5 to 10 mg/kg. This compound gave a Lethal dose in data set [3] of 10 mg/kg.
Regarding `COc1ccccc1C(CCN(C)C)c1ccccc1` (stereo not drawn) [GB-A-1.169.944, N,N-dimethyl-3-(2-methoxyphenyl)-3-phenylpropylamine, reference compound], the IC50 in data set [1] (setting [7]) came to 2.1e-05 M; in data set [5] (setting [8]), 1.2e-06 M; in data set [6] (setting [9]), 4.4e-06 M. Further, the LD50 at 5 min in data set [2] fell in the range of 10 to 15 mg/kg. For the same compound, the Lethal dose in data set [3] came out at 15 mg/kg.
Turning to `CC(CC(c1ccccc1)c1ccccc1)NC(C)(C)C` (stereo not drawn) [Terodiline, terodiline, reference compound], the IC50 in data set [1] (setting [7]) was 1e-05 M; in data set [5] (setting [8]) it was 5.2e-07 M; in data set [6] (setting [9]), 2.4e-06 M. Further, the LD50 at 5 min in data set [2] is 15 to 20 mg/kg. For the same compound, in data set [3], the Lethal dose is 20 mg/kg. Also, the “Effect on heart rate threshold dose” value in data set [4] fell in the range of 1 to 3 mg/kg.

(Values after EP0325571B1, “New amines, their use and preparation” (priority 1988, dated 1989).)
